Patent US20250327027A1, “METHODS TO GENERATE ENHANCED TUMOR INFILTRATING LYMPHOCYTES THROUGH MICROFLUIDIC DELIVERY” (STEMCELL TECHNOLOGIES CANADA INC., priority 2021, published 2025)
“And” between values parts separate entries of the source, which are not always exact repeats. Equal entries are not always repeated.

What was measured:
Assay type in all cases: cell-based
melanoma TILs = assay: Comparison of microfluidic chips and anti-CD3 antibody clones used in REP (mbIL-2/mbIL-12 expression); settings: anti-CD3 clone used in REP culture; 4 hours post squeeze
Excerpt: As described herein, TILs are often expanded to increase their number prior to their use in adoptive transfer studies Such expansion phase can involve the use of anti-CD3 antibodies to activate and induce the TILs to proliferate. Whether the specific anti-CD3 antibody clone used in the expansion phase was next assessed. Briefly, melanoma TILs were collected from REP cultures that contained different anti-CD3 clones (OKT3, SK7, HIT3a, or UCHT1). Following cell harvest, the post-REP TILs were resuspended at 40 million live cells/mL cell density as 2× concentration. The cells were mixed with equal volume of 2× mRNA solution and squeezed through various chip types (10-3.5-70 SF, 10-4-70 ST) and pressure (30 psi) at room temperature. Final concentration of cells was 20 million live cells/mL. Final mRNA concentration for squeeze was […] for each of mbIL-2 and mbIL-12 mRNA. Following the squeeze processing, cells were quenched in CTS OpTmizer media and spun immediately. […] The squeezed TILs were assessed at 4 hours post squeeze by flow cytometry for viability, cell composition, and surface levels of mbIL-2 and mbIL-12.

lung TILs = assay: Comparison of anti-CD3 antibody concentration in pre-REP (mbIL-2/mbIL-12 and CD62L expression); settings: 6 or 30 ng/mL anti-CD3 antibody (OKT3 clone) during pre-REP
Method: As described herein, in some aspects, prior to modifying the TILs, the TILs can undergo a first expansion phase (pre-REP) and a second expansion phase (REP). Whether the concentration of the anti-CD3 antibody during the first expansion phase has an effect in producing the modified TILs described herein, the following methods were used. Briefly, lung TILs underwent a pre-REP process in the absence or presence of 6 or 30 ng/mL anti-CD3 antibody (OKT3 clone). Then, the TILs were collected and further expanded in a REP process. Afterwards, the cells were resuspended at 40 million live cells/mL cell density as 2× concentration. The cells were mixed with equal volume of 2× mRNA solution and squeezed through 10-4-70 ST at 60 psi at room temperature. Final concentration of cells was 20 million live cells/mL. Final mRNA concentration for squeeze was […] for each of mbIL-2 and mbIL-12 mRNA. Following squeezing, cells were quenched in CTS OpTmizer media and spun immediately. […] The squeezed TILs were assessed at 4, 24, and 48 hours post squeeze by flow cytometry for viability, cell composition, surface levels of mbIL-2 and mbIL-12.

TILs = assay: Effect of anti-CD3 antibody on TIL expansion from melanoma tumor fragments (NucleoCounter NC-200); settings: for Cell Count on Day 13 / Viability on Day 13: 6,000 IU/mL recombinant IL-2, replicate wells
Method: Further to the data provided in Example 22, the effect of anti-CD3 antibody on TIL expansion was further assessed. Briefly, freshly resected melanoma tumor was rinsed in 1× Hank's Balanced Salt Solution (HBSS) with 10 μg/mL gentamicin and dissected into 8-27 mm^3 fragments using a forceps and scalpel. […] Five tumor fragments, 8-27 mm^3 in size, per well were added to the G-Rex6M plate. The G-Rex6M plate was then placed in a 37° C., 5% CO2 incubator for 4 days.
On day 4, the G-Rex6M plate was removed from the incubator. […] The G-Rex6M plate was returned to the 37° C., 5% CO2 incubator for an additional 9 days.
On day 13, the TILs were harvested and transferred to a 50 mL conical tube. The number and viability of the TILs was assessed using a NucleoCounter NC-200.

## OKT3: anti-CD3 antibody clone used in TIL expansion
Melanoma TILs
  mbIL-2 and mbIL-12 expression (percentage of total cells and MFI): higher expression
Lung TILs
  impact on translation kinetics of mbIL-2 and mbIL-12 expression: minimal impact
TILs; 6 ng/mL OKT3
  Cell Count on Day 13: 2.35 × 10^8 and 2.43 × 10^8
  Viability on Day 13: 90.7% and 91.1%
TILs; 20 ng/mL OKT3
  Cell Count on Day 13: 2.00 × 10^8 and 2.17 × 10^8
  Viability on Day 13: 90.5% and 91.6%
TILs; 6 or 30 ng/mL of OKT3, day 13, compared to culture without OKT3
  TIL expansion: greater TIL expansion
